The subject of this test is methicillin sensitive Staphylococcus aureus (MSSA; Smith strain). Kind of test: Mouse protection model: mice infected intraperitoneally with MSSA, dosed subcutaneously. The format is in vivo. The following applies: for Number Dead: 10 mice. The protocol: An overnight culture of methicillin sensitive Staphylococcus aureus (“MSSA”; Smith strain) grown to stationary phase in brain heart infusion broth (BHI) was diluted 1000-fold and maintained at 37° C. in a shaking incubator. Approximately two hours later the culture was centrifuged and the pellet was washed with sterile phosphate-buffered saline (“PBS”). The washed pellet was then reconstituted in Mueller-Hinton Broth (“MHB”) to achieve the desired density of bacteria. A portion of the inoculum was plated on blood agar plates to determine colony-forming units (CFU) per milliliter.
Compound IB-1272 was formulated immediately before dosing in aqueous vehicle containing 5% dextrose. Compound IB-756 (Aspartocin) was formulated in PBS or 5% dextrose and used as a positive control.
Immunocompetent Swiss Webster Mice from Simonsen Laboratories, Gilroy, Calif., received via intraperitoneal injection a single inoculum (0.5 ml) containing an estimated 4.0×10^7 CFU of MSSA Smith strain. The day of inoculation was designated study day 0. Immediately after infection, mice were treated subcutaneously with a single dose of vehicle alone, IB-1272 (2, 4, or 8 mg/kg), IB-756 (2.5 or 5 mg/kg in PBS), or IB-756 (2.5 or 5 mg/kg in 5% dextrose).

Where [1] appears, read: Table 1, no unit or model given.
Where [2] appears, read: 2.0 mg/kg s.c. single dose (5% dextrose vehicle).
Setting [3] is: 4 mg/kg s.c. single dose (5% dextrose vehicle).
[4] abbreviates: 8 mg/kg s.c. single dose (5% dextrose vehicle).

SMILES strings stand for the structures.

This note sets out measurements from patent US7125844B2, “Dab9 derivatives of lipopeptide antibiotics and methods of making and using the same” (priority 2002, dated 2006).

On to `CC(C)CCCCCCCC/C=C\CC(=O)N[C@@H](CC(=O)O)C(=O)N[C@@H]1C(=O)N2CCCC[C@@H]2C(=O)N[C@@H]([C@H](C)C(=O)O)C(=O)N[C@@H](CC(=O)O)C(=O)NCC(=O)N[C@@H](CC(=O)O)C(=O)NCC(=O)N[C@H]([C@@H](C)NC(=O)[C@@H](N)CO)C(=O)N[C@@H](C(C)C)C(=O)N2CCC[C@H]2C(=O)N[C@@H]1C` [IB-1281, NatC15-aspartocin(Dab^9-N-L-seryl)], for which, under setting [1], the 50% effective dose (ED50) turned out to be 14.7 mg/kg.

`CC(C)CCCCCCCC/C=C\CC(=O)N[C@@H](CC(=O)O)C(=O)N[C@@H]1C(=O)N2CCCC[C@@H]2C(=O)N[C@@H]([C@H](C)C(=O)O)C(=O)N[C@@H](CC(=O)O)C(=O)NCC(=O)N[C@@H](CC(=O)O)C(=O)NCC(=O)N[C@H]([C@@H](C)NC(=O)CN)C(=O)N[C@@H](C(C)C)C(=O)N2CCC[C@H]2C(=O)N[C@@H]1C` [IB-1272, NatC15-aspartocin(Dab^9-N-glycyl)]: the “Percent Mortality” value reads like this: under setting [2], 50%; under setting [3], 0%; under setting [4], 0%. For the same molecule, the “Percent Survival” value reads like this: under setting [2], 50%; under setting [3], 100%; under setting [4], 100%. The “Number Dead” value stood at 5 under setting [2], 0 under setting [3] and 0 under setting [4]. The ED50 is, setting by setting: under setting [1], 1.8 mg/kg; (subcutaneously administered, immunocompetent mice challenged intraperitoneally with MSSA Smith strain) < 2.0 mg/kg.

Molecule `CC(C)CCCCCCCC/C=C\CC(=O)N[C@@H](CC(=O)O)C(=O)N[C@@H]1C(=O)N2CCCC[C@@H]2C(=O)N[C@@H]([C@H](C)C(=O)O)C(=O)N[C@@H](CC(=O)O)C(=O)NCC(=O)N[C@@H](CC(=O)O)C(=O)NCC(=O)N[C@H]([C@@H](C)NC(=O)[C@@H](C)N)C(=O)N[C@@H](C(C)C)C(=O)N2CCC[C@H]2C(=O)N[C@@H]1C` [IB-1279, NatC15-aspartocin(Dab^9-N-D-alanyl)] showed an ED50 under setting [1] of 6 mg/kg.

`CC(C)CCCCCCCC/C=C\CC(=O)N[C@@H](CC(=O)O)C(=O)N[C@@H]1C(=O)N2CCCC[C@@H]2C(=O)N[C@@H]([C@H](C)C(=O)O)C(=O)N[C@@H](CC(=O)O)C(=O)NCC(=O)N[C@@H](CC(=O)O)C(=O)NCC(=O)N[C@H]([C@@H](C)NC(=O)[C@H](C)N)C(=O)N[C@@H](C(C)C)C(=O)N2CCC[C@H]2C(=O)N[C@@H]1C` [IB-1275, NatC15-aspartocin(Dab^9-N-L-alanyl)]: the ED50 under setting [1] was 15.7 mg/kg.

For orientation: ED50 means the midpoint of the dose-response relation. Low values mean an effect at a small dose, high ones a need for a large dose.
